Reference: US4629736A, “Fatty acid derivatives and process of producing them” (Yamanouchi Pharmaceutical Co., Ltd., priority 1983, dated 1986)
Blank lines part the entries; values can stand above or below the compound they belong to.

Columns and labels:
[1] = tested on: Fibrin-clot (lysis by Urokinase); assay: Fibrinolytic action (fibrin-clot lysis assay), clot lysis time relative to Urokinase alone; assay type: biochemical
Protocol: FIBRINOLYTIC ACTION (Fibrin-clot lysis assay)
Fibrinogen (1 mg/50 μl, made by Green Cross Corporation) and various amounts of the test compounds, were added to test tubes, followed to make a total volume of 850 μl with cold Tris-buffered saline (20 mM Tris-buffer, pH 7.4, containing 140 mM NaCl). To the solutions were added 100 μl of Urokinase solution (30 CTA unit/0.1 ml) and 50 μl of thrombin solution (2 NIH units/50 μl) to make final clot volume of 1 ml each in test tubes in an ice bath. The tubes were quickly shaken to mix the reagents well and immediately placed in a 37° C. water bath, and the clot lysis time was recorded. Test compounds were dissolved in physiological saline, except contrast one dissolved in physiological saline containing 10% cremophore and 0.15% ethanol. Thus, by measuring the time of clot lysis, the relative activity of the fibrinolytic action of the test compound to that of Urokinase using the system of Urokinase alone as the control was determined. The results of the pharmacological effect of the compounds of this invention are shown in Table 1 below together with that of 3-hexadecanoyloctadecanoyl-β-alanyl-L-phenylalanine having the formula [drawing 15] which is one of the compounds having the most excellent fibrinolytic action in known compounds.

[2] = Solubility in saline; assay type: physicochemical
Excerpt: In particular, the compounds of this invention have been discovered after investigating the point of water solubility, which has never been attained in known acylpeptides. That is, the compounds of this invention have very improved water solubility, whereby sufficient pharmacological effect of the compounds can be expected and also the preparations of the compounds, such as the application to injections, and the like, can be easily performed. For example, the solubility of compound of Example 21 is more than 5 mg/ml saline.

[3] = tested on: mice; assay: Acute toxicity, intravenous injection to mice; assay type: in vivo; settings: mouse
Protocol: In addition, the acute toxicity of the compound in Example 21 was measured as follows.

[4] = at 1 × 10^-5 M, solvent physiological saline solution

Fibrinolytic Action, maximum relative activity (%) with the activity of Urokinase alone being defined to 100% [1, 4]: 150%
SMILES: CCCCCCCCCCOCCNC(=O)[C@H](CC(=O)O)NC(=O)COCCOCCCCCCCCCC [Example 14, (S)-3-(3,6-dioxahexadecanamido)-3-(3-oxatridecylcarbamoyl)propionic acid]

Fibrinolytic Action, maximum relative activity (%) with the activity of Urokinase alone being defined to 100% ([1]; at 3 × 10^-5 M, solvent physiological saline solution): 160%
SMILES: CCCCCCCCCCCCCCCC(CC(=O)N[C@@H](CO)C(=O)O)OC(=O)COCCOCCCCCCCCCC (stereo partly drawn) [Example 22, N-[3-(3,6-dioxahexadecanoyloxy)octadecanoyl]-L-serine]

Fibrinolytic Action, maximum relative activity (%) with the activity of Urokinase alone being defined to 100% ([1]; at 1 × 10^-4 M, solvent Cremophore solution): 140-150%
SMILES: CCCCCCCCCCCCCCCC(=O)C(CCCCCCCCCCCCCCC)CC(=O)NCCC(=O)N[C@@H](Cc1ccccc1)C(=O)O (stereo partly drawn) [Known compound, 3-hexadecanoyloctadecanoyl-β-alanyl-L-phenylalanine, reference compound]

The remaining lines, values behind:

SMILES: CCCCCCCCCCCCCCCC(CC(=O)N[C@@H](Cc1ccccc1)C(=O)O)OC(=O)COCCOCCOCCOCCCC (stereo partly drawn) [Example 19, N-[3-(3,6,9,12-tetraoxahexadecanoyloxy)octadecanoyl]-L-phenylalnine]
Fibrinolytic Action, maximum relative activity (%) with the activity of Urokinase alone being defined to 100% [1, 4]: 130-140%

SMILES: CCCCCCCCCCCCCC(CC(=O)N[C@@H](Cc1ccccc1)C(=O)O)OC(=O)COCCOCCCCCCCCCC (stereo partly drawn) [Example 21, N-[3-(3,6-dioxahexadecanoyloxy)hexadecanoyl]-L-phenylalanine]
Fibrinolytic Action, maximum relative activity (%) with the activity of Urokinase alone being defined to 100% ([1]; at 3 × 10^-6 M, solvent physiological saline solution): 150-160%
solubility [2]: more than 5 mg/ml saline
acute toxicity (dose without death) [3]: higher than 200 mg/40 ml saline/kg

SMILES: CCCCCCCCCCCCCCCC(CC(=O)N[C@@H](Cc1ccccc1)C(=O)O)OC(=O)COCCOCCOCCCCCC (stereo partly drawn) [Example 20, N-[3-(3,6,9-trioxapentadecanoyloxy)octadecanoyl]-L-phenylalanine]
Fibrinolytic Action, maximum relative activity (%) with the activity of Urokinase alone being defined to 100% [1, 4]: 130-150%
